Measurements from the NIST ThermoML archive (doi:10.1016/j.jct.2016.04.003).

Assay: xn = mol fraction of the nth substance listed
Conditions: for surface tension liquid-gas: Drop volume; for viscosity / speed of sound / mass density: 99 kPa, Liquid; for viscosity: Capillary tube (Ostwald / Ubbelohde) method; for speed of sound: Frequency=3 MHz, Sing-around technique in a fixed-path interferometer; for mass density: Vibrating tube method

CCCC[n+]1ccccc1.F[B-](F)(F)F [1-butylpyridinium tetrafluoroborate] + O
Conditions	mass density [kg/m3]	speed of sound [m/s]	surface tension liquid-gas [mN/m]	viscosity [mPa·s]
293.15 K, x1 = 0.0115	–	–	57.1	–
293.15 K, x1 = 0.0165	1028.6	1539	–	–
293.15 K, x1 = 0.0185	–	–	54.3	–
293.15 K, x1 = 0.0271	–	–	52.5	–
293.15 K, x1 = 0.0372	–	–	51.3	–
293.15 K, x1 = 0.0379	1058	1572.7	–	–
293.15 K, x1 = 0.0456	–	–	50.7	–
293.15 K, x1 = 0.047	–	–	–	1.379
293.15 K, x1 = 0.0863	1100.2	1606.7	–	–
293.15 K, x1 = 0.0942	–	–	49.2	–
293.15 K, x1 = 0.095	–	–	–	1.806
293.15 K, x1 = 0.101	1109.3	1612.3	–	–
293.15 K, x1 = 0.134	1125.6	1620.9	–	–
293.15 K, x1 = 0.1907	–	–	48.7	–
293.15 K, x1 = 0.2001	–	–	–	3.439
293.15 K, x1 = 0.243	1158.2	1630	–	–
293.15 K, x1 = 0.2846	–	–	48.3	–
293.15 K, x1 = 0.289	1167	1629.4	–	–
293.15 K, x1 = 0.2912	–	–	–	5.459
293.15 K, x1 = 0.34	–	–	48.3	–
293.15 K, x1 = 0.3456	1175.6	1627.7	–	–
293.15 K, x1 = 0.3866	–	–	48	–
293.15 K, x1 = 0.4015	–	–	–	10.4
293.15 K, x1 = 0.4217	1184.5	1624.5	–	–
293.15 K, x1 = 0.4807	–	–	–	15.2
293.15 K, x1 = 0.486	–	–	47.7	–
293.15 K, x1 = 0.5485	1195.4	1619.7	–	–
293.15 K, x1 = 0.5777	–	–	47.5	–
293.15 K, x1 = 0.5815	–	–	–	23.72
293.15 K, x1 = 0.6029	1199	1618	–	–
293.15 K, x1 = 0.6641	–	–	–	34.53
293.15 K, x1 = 0.6943	–	–	47.3	–
293.15 K, x1 = 0.7232	1205.7	1614.9	–	–
293.15 K, x1 = 0.7779	–	–	47	–
293.15 K, x1 = 0.7855	–	–	–	67.74
293.15 K, x1 = 0.8005	1209.3	1613.5	–	–
293.15 K, x1 = 0.835	–	–	46.8	–
293.15 K, x1 = 0.8575	1211.7	1612.8	–	–
293.15 K, x1 = 0.8875	–	–	–	121.1
293.15 K, x1 = 0.925	–	–	46.8	–
293.15 K, x1 = 0.9305	–	–	–	149.6
293.15 K, x1 = 0.9315	1214.5	1612	–	–
293.15 K, x1 = 0.9705	–	–	–	189.6
293.15 K, x1 = 1	1217.1	1611.5	46.9	220.5
303.15 K, x1 = 0.0115	–	–	56.4	–
303.15 K, x1 = 0.0165	1025.3	1552	–	–
303.15 K, x1 = 0.0185	–	–	54	–
303.15 K, x1 = 0.0271	–	–	52.1	–
303.15 K, x1 = 0.0372	–	–	51	–
303.15 K, x1 = 0.0379	1053.9	1576.9	–	–
303.15 K, x1 = 0.0456	–	–	50.4	–
303.15 K, x1 = 0.047	–	–	–	1.082
303.15 K, x1 = 0.0863	1094.8	1600.1	–	–
303.15 K, x1 = 0.0942	–	–	49.1	–
303.15 K, x1 = 0.095	–	–	–	1.333
303.15 K, x1 = 0.101	1103.7	1603.2	–	–
303.15 K, x1 = 0.134	1119.5	1608.1	–	–
303.15 K, x1 = 0.1907	–	–	48.5	–
303.15 K, x1 = 0.2001	–	–	–	2.475
303.15 K, x1 = 0.243	1151.3	1610.7	–	–
303.15 K, x1 = 0.2846	–	–	48.1	–
303.15 K, x1 = 0.289	1159.9	1608.8	–	–
303.15 K, x1 = 0.2912	–	–	–	4.217
303.15 K, x1 = 0.34	–	–	47.9	–
303.15 K, x1 = 0.3456	1168.3	1606.1	–	–
303.15 K, x1 = 0.3866	–	–	47.6	–
303.15 K, x1 = 0.4015	–	–	–	7.329
303.15 K, x1 = 0.4217	1177.2	1602.7	–	–
303.15 K, x1 = 0.4807	–	–	–	10.67
303.15 K, x1 = 0.486	–	–	47.3	–
303.15 K, x1 = 0.5485	1188	1597.4	–	–
303.15 K, x1 = 0.5777	–	–	47	–
303.15 K, x1 = 0.5815	–	–	–	15.59
303.15 K, x1 = 0.6029	1191.7	1595.6	–	–
303.15 K, x1 = 0.6641	–	–	–	22.31
303.15 K, x1 = 0.6943	–	–	46.7	–
303.15 K, x1 = 0.7232	1198.5	1592.3	–	–
303.15 K, x1 = 0.7779	–	–	46.5	–
303.15 K, x1 = 0.7855	–	–	–	41.77
303.15 K, x1 = 0.8005	1202.2	1590.7	–	–
303.15 K, x1 = 0.835	–	–	46.2	–
303.15 K, x1 = 0.8575	1204.6	1589.7	–	–
303.15 K, x1 = 0.8875	–	–	–	72.76
303.15 K, x1 = 0.925	–	–	46.2	–
303.15 K, x1 = 0.9305	–	–	–	90.38
303.15 K, x1 = 0.9315	1207.6	1588.9	–	–
303.15 K, x1 = 0.9705	–	–	–	106.5
303.15 K, x1 = 1	1210.3	1588.1	46.3	119.5
313.15 K, x1 = 0.0115	–	–	55.5	–
313.15 K, x1 = 0.0165	1021.2	1560	–	–
313.15 K, x1 = 0.0185	–	–	53	–
313.15 K, x1 = 0.0271	–	–	51.6	–
313.15 K, x1 = 0.0372	–	–	50.3	–
313.15 K, x1 = 0.0379	1049.2	1576.8	–	–
313.15 K, x1 = 0.0456	–	–	49.9	–
313.15 K, x1 = 0.047	–	–	–	0.845
313.15 K, x1 = 0.0863	1089.2	1590.3	–	–
313.15 K, x1 = 0.0942	–	–	48.5	–
313.15 K, x1 = 0.095	–	–	–	1.16
313.15 K, x1 = 0.101	1097.8	1591.9	–	–
313.15 K, x1 = 0.134	1113.3	1593.4	–	–
313.15 K, x1 = 0.1907	–	–	47.9	–
313.15 K, x1 = 0.2001	–	–	–	1.741
313.15 K, x1 = 0.243	1144.4	1590.6	–	–
313.15 K, x1 = 0.2846	–	–	47.7	–
313.15 K, x1 = 0.289	1152.9	1587.9	–	–
313.15 K, x1 = 0.2912	–	–	–	2.929
313.15 K, x1 = 0.34	–	–	47.6	–
313.15 K, x1 = 0.3456	1161.3	1585	–	–
313.15 K, x1 = 0.3866	–	–	47.6	–
313.15 K, x1 = 0.4015	–	–	–	5.101
313.15 K, x1 = 0.4217	1170.1	1580.8	–	–
313.15 K, x1 = 0.4807	–	–	–	8.106
313.15 K, x1 = 0.486	–	–	47	–
313.15 K, x1 = 0.5485	1180.9	1575.2	–	–
313.15 K, x1 = 0.5777	–	–	46.6	–
313.15 K, x1 = 0.5815	–	–	–	11.33
313.15 K, x1 = 0.6029	1184.6	1573.3	–	–
313.15 K, x1 = 0.6641	–	–	–	15.02
313.15 K, x1 = 0.6943	–	–	46.2	–
313.15 K, x1 = 0.7232	1191.6	1569.9	–	–
313.15 K, x1 = 0.7779	–	–	45.9	–
313.15 K, x1 = 0.7855	–	–	–	26.33
313.15 K, x1 = 0.8005	1195.3	1568.4	–	–
313.15 K, x1 = 0.835	–	–	45.7	–
313.15 K, x1 = 0.8575	1197.8	1567.3	–	–
313.15 K, x1 = 0.8875	–	–	–	44.04
313.15 K, x1 = 0.925	–	–	45.7	–
313.15 K, x1 = 0.9305	–	–	–	53.39
313.15 K, x1 = 0.9315	1200.9	1566.3	–	–
313.15 K, x1 = 0.9705	–	–	–	63.74
313.15 K, x1 = 1	1203.7	1565.6	45.7	71.1
323.15 K, x1 = 0.0115	–	–	54.5	–
323.15 K, x1 = 0.0165	1016.5	1561.9	–	–
323.15 K, x1 = 0.0185	–	–	52	–
323.15 K, x1 = 0.0271	–	–	50.5	–
323.15 K, x1 = 0.0372	–	–	49.5	–
323.15 K, x1 = 0.0379	1043.9	1571.9	–	–
323.15 K, x1 = 0.0456	–	–	48.7	–
323.15 K, x1 = 0.047	–	–	–	0.708
323.15 K, x1 = 0.0863	1083	1577.9	–	–
323.15 K, x1 = 0.0942	–	–	47.7	–
323.15 K, x1 = 0.095	–	–	–	0.867
323.15 K, x1 = 0.101	1091.5	1577.7	–	–
323.15 K, x1 = 0.134	1106.6	1576.8	–	–
323.15 K, x1 = 0.1907	–	–	47.1	–
323.15 K, x1 = 0.2001	–	–	–	1.418
323.15 K, x1 = 0.243	1137.2	1569.9	–	–
323.15 K, x1 = 0.2846	–	–	46.9	–
323.15 K, x1 = 0.289	1145.6	1566.7	–	–
323.15 K, x1 = 0.2912	–	–	–	2.295
323.15 K, x1 = 0.34	–	–	46.6	–
323.15 K, x1 = 0.3456	1153.8	1562.9	–	–
323.15 K, x1 = 0.3866	–	–	46.4	–
323.15 K, x1 = 0.4015	–	–	–	3.991
323.15 K, x1 = 0.4217	1162.6	1558.9	–	–
323.15 K, x1 = 0.4807	–	–	–	5.631
323.15 K, x1 = 0.486	–	–	46.1	–
323.15 K, x1 = 0.5485	1173.4	1553.2	–	–
323.15 K, x1 = 0.5777	–	–	45.8	–
323.15 K, x1 = 0.5815	–	–	–	7.929
323.15 K, x1 = 0.6029	1177.2	1551.3	–	–
323.15 K, x1 = 0.6641	–	–	–	10.77
323.15 K, x1 = 0.6943	–	–	45.6	–
323.15 K, x1 = 0.7232	1184.2	1548	–	–
323.15 K, x1 = 0.7779	–	–	45.3	–
323.15 K, x1 = 0.7855	–	–	–	18.47
323.15 K, x1 = 0.8005	1188	1546.4	–	–
323.15 K, x1 = 0.835	–	–	45.1	–
323.15 K, x1 = 0.8575	1190.6	1545.2	–	–
323.15 K, x1 = 0.8875	–	–	–	27.32
323.15 K, x1 = 0.925	–	–	45.1	–
323.15 K, x1 = 0.9305	–	–	–	34.39
323.15 K, x1 = 0.9315	1193.8	1544.1	–	–
323.15 K, x1 = 0.9705	–	–	–	40.41
323.15 K, x1 = 1	1196.7	1543.5	45.1	45.56
